From patent US20260240869A1, “ANTIPSEUDOMONAL FUSIDIC ACID COMPOUNDS” (priority 2022, published 2026)
Converted amounts (≈) assume the structure as drawn. Read-outs that look alike come from different tables or passages of the source.

What was measured:
[1] = system: P. aeruginosa PAO1; test: MIC, CLSI broth microdilution, P. aeruginosa PAO1; format: cell-based, Pseudomonas aeruginosa; settings: for MIC P. aeruginosa PAO1, CAMH: CAMH (Table 10); for shift in MIC on co-treatment with 5 mM MgCl2: P. aeruginosa PAO1; for MIC: Pseudomonas aeruginosa; for MIC P. aeruginosa PAO1, 5 mM MgCl2/CAMH: co-treatment 5 mM MgCl2 in CAMH (Table 10)
Method: (§1) Antimicrobial Susceptibility Tests. Susceptibility testing was performed in biological triplicate, using the microdilution broth method as outlined by the Clinical and Laboratory Standards Institute. Bacteria were cultured with cation-adjusted Meuller-Hinton broth (Sigma-Aldrich; catalogue number: 90922) or Luria-Bertani (LB) broth (Lennox) in round-bottom 96-well plates (Corning; catalogue number: 3788).

[2] = system: P. aeruginosa PA14; test: MIC, P. aeruginosa PA14; format: cell-based, Pseudomonas aeruginosa; settings: Pseudomonas aeruginosa
Method: as §1

[3] = system: E. coli MG1655; test: MIC, E. coli MG1655; format: cell-based; settings: Escherichia coli
Method: as §1

[4] = system: S. aureus ATCC 29213; test: MIC, S. aureus ATCC 29213; format: cell-based; settings: Staphylococcus aureus
Method: as §1

[5] = system: FA resistance mutants of P. aeruginosa PAO1 A6; test: MIC in FA-resistant mutants; format: cell-based, Pseudomonas aeruginosa; settings: mutants generated in PAO1 A6
Method: as §1
Selection ofresistant mutants. Resistant mutants were selected using the large inoculum method. […] Colonies were visible after incubating at 37° C. for 72 h.

[6] = system: P. aeruginosa PAO1; test: LC-MS/MS whole-cell accumulation assay, P. aeruginosa PAO1; format: cell-based, Pseudomonas aeruginosa; settings: for PA Accumulation (FA): P. aeruginosa PAO1, accumulation of FA reported (Table 8)
Method: (§2) Accumulation Assay. The accumulation assay was performed in triplicate in batches of ten samples, with each batch containing tetracycline or ciprofloxacin as a positive control. P. aeruginosa PAO1, PAO1 A6, PA14, PA14 A40, and PA1280, and E. coli MG1655 were used in these experiments. For each replicate, 2.5 mL (E. coli) or 5 mL (P. aeruginosa) of an overnight culture was diluted into 250 mL of fresh Luria-Bertani broth (Lennox) or Tryptic Soy Broth (TSB) and grown at 37° C. with shaking to an optical density (OD600) of 0.55-0.60. The bacteria were pelleted at 3220 r.c.f. for 10 min at 4° C., and the supernatant was discarded. The pellets were resuspended in 40 mL of phosphate buffered saline (PBS) and pelleted as before, and the supernatant was discarded. The pellets were resuspended in 8.8 mL of fresh PBS and aliquoted into ten, 1.5 mL Eppendorf tubes (875 μL each). The number of colony-forming units (CFUs) was determined by a calibration curve. The samples were equilibrated at 37° C. with shaking for 5 min; compound was added (final concentration=50 μM), and then the samples were incubated at 37° C. with shaking for either 10 min. These time points were short enough to minimize metabolic and growth changes (no changes in OD600 or CFU count observed). After incubation, 800 μL of the cultures was carefully layered on 700 μL of silicone oil (9:1 AR20/Sigma High Temperature, cooled to −78° C.). Bacteria were pelleted through the oil by centrifuging at 13 000 r.c.f. for 2 min at room temperature (with the supernatant remaining above the oil); the supernatant and oil were then removed by pipetting. To lyse the samples, each pellet was dissolved in […] of water, and then, they were subjected to three (E. coli) or four (P. aeruginosa) freeze-thaw cycles of 3 min in liquid nitrogen followed by 3 min in a water bath at 65° C. P. aeruginosa samples were then treated with 50 µM DNase and RNase and incubated at 37° C. for 15 minutes. The lysates were pelleted at 13 000 r.c.f. for 2 min at room temperature, and the supernatant was collected ([…]). The debris was resuspended in 100 μL of methanol and pelleted as before. The supernatants were removed and combined with the previous supernatants collected. Finally, the remaining debris was removed by centrifuging at 20 000 r.c.f. for 10 min at room temperature. Supernatants were analyzed by LC-MS/MS.
(§3) Samples were analyzed with the 5500 QTRAP LC/MS/MS system (AB Sciex) with a 1200 series HPLC system (Agilent Technologies) including a degasser, an autosampler, and a binary pump. Liquid chromatography separation was performed on an Agilent SB-Aq column (4.6×50 mm, 5 μm) (Agilent Technologies) with mobile phase A (0.1% formic acid in water) and mobile phase B (0.1% formic acid in acetonitrile). The flow rate was 0.3 mL/min. The linear gradient was as follows: 0-3 min, 100% mobile phase A; 10-15 min, 2% mobile phase A; 15.5-21 min, 100% mobile phase A. The autosampler was set at 5° C. The injection volume was 15 μL. Mass spectra were acquired with both positive electrospray ionization at the ion spray voltage of 5500 V and negative electrospray ionization at the ion spray voltage of −4500 V. The source temperature was 450° C. The curtain gas, ion source gas 1, and ion source gas 2 were 33, 50, and 65, respectively. Multiple reaction monitoring was used to quantify the metabolites. Power analysis was not used to determine the number of replicates. Error bars represent the standard error of the mean of three biological replicates. The statistical significance of the accumulation was determined using a two sample Welch's t test (one-tailed test, assuming unequal variance) relative to the negative controls. All compounds evaluated in the biological assays were >95% pure.
MBN assay. Assays measuring permeabilization by polymyxin B nonapeptide (PMBN) were performed as above, with the addition of 8 μg/mL PMBN immediately before the compound of interest was added.

[7] = system: E. coli MG1655; test: LC-MS/MS whole-cell accumulation assay, E. coli MG1655; format: cell-based; settings: E. coli MG1655; accumulation of FA reported (Table 8)
Method: as §2, §3

[8] = system: P. aeruginosa PAO1; test: NPN outer membrane permeability assay; format: cell-based, Pseudomonas aeruginosa; settings: treatment for ten minutes
Description: Further, the fluorescent probe N-phenylnapthylamine (NPN) was used to assess outer membrane permeability changes upon treatment with FA, gentamicin, and FA prodrug. NPN is membrane impermeable and is only weakly fluorescent in aqueous solutions. Upon entry to the cell and interacting with phospholipids, significant fluorescence is observed. […] This residual membrane depolarizing antibacterial activity can be observed in the FA polyamine (FIG. 4a) and the diacylated compound (Table 9).

[9] = system: P. aeruginosa PAO1; test: DiSC3 (5) inner membrane depolarization assay; format: cell-based, Pseudomonas aeruginosa

Compound: CC(=O)O[C@H]1C[C@@]2(C)[C@@H](C[C@@H](O)[C@H]3[C@@]4(C)CC[C@@H](O)[C@@H](C)[C@@H]4CC[C@@]32C)/C1=C(\CCC=C(C)C)C(=O)O/N=C(\N)CNCCCNCCCNCCCN [FA prodrug, (3R, 4S,5S,8S,9S,10S,11R,13R,14S,16S,Z)-17-((Z)-1,14-diamino-22-methyl-17-oxo-16-oxa-4,8,12,15-tetraazatricosa-14,21-dien-18-ylidene)-3,11-dihydroxy-4,8,10,14-tetramethylhexadecahydro-1H-cyclopenta[a]phenanthren-16-yl acetate]
- MIC against P. aeruginosa PAO1 [1]: 4 mg/L
- Fold change (MIC) ([1]; 5 mM MgCl2/CAMH versus CAMH (Table 10)): 32X
- MIC P. aeruginosa PAO1, CAMH [1]: 4 mg/L
- shift in MIC on co-treatment with 5 mM MgCl2 [1]: 32 -fold
- increase in activity relative to FA ([1]; PAO1 MIC): 256 -fold
- MIC ([1]; PAO1): 4 mg/L
- MIC ([1]; PAO1, read-out: MIC P. aeruginosa PAO1): 4 mg/L
- MIC ([1]; PAO1, read-out: P. aeruginosa PAO1 MIC): 4 mg/L
- MIC P. aeruginosa PAO1, 5 mM MgCl2/CAMH [1]: 128
- MIC ([2]; PA14): 8 mg/L
- MIC ([3]; MG1655, read-out: E. coli MG1655 MIC): 4 mg/L
- MIC ([3]; MG1655, read-out: MIC E. coli MG1655): 4 mg/L
- MIC ([4]; ATCC29213, read-out: MIC S. aureus ATCC 29213): 1 mg/L
- MIC fold change in FA-resistant strains [5]: several fold change
- PA Accumulation (FA) [6]: 3396 ± 122 nmol/1012 CFUs
- EC Accumulation (FA) [7]: 3337 ± 175 nmol/1012 CFUs
- NPN fluorescence (outer membrane permeability) [8]: dose-dependent increase
- inner membrane depolarization (DiSC3 (5) fluorescence) [9]: dose-dependent inner membrane depolarization

Compound: CC(=O)O[C@H]1C[C@@]2(C)[C@@H](C[C@@H](O)[C@H]3[C@@]4(C)CC[C@@H](O)[C@@H](C)[C@@H]4CC[C@@]32C)/C1=C(\CCC=C(C)C)C(=O)O [FA, Fusidic acid]
- MIC P. aeruginosa PAO1, CAMH [1]: 1020 mg/L (≈ 1980 µM)
- shift in MIC on co-treatment with 5 mM MgCl2 [1]: no change in antibacterial activity
- MIC ([1]; PAO1, CLSI (Table 8), read-out: P. aeruginosa PAO1 MIC): 1020 mg/L (≈ 1980 µM)
- MIC ([1]; PAO1, Table 9, read-out: MIC P. aeruginosa PAO1): 1020 mg/L (≈ 1980 µM)
- MIC ([1]; Reference strain PAO1 (Table 11), read-out: MIC): 1020 mg/L (≈ 1980 µM)
- MIC ([1]; WT P. aeruginosa PAO1, MH broth (Table 1), read-out: PAO1 MIC): > 512 mg/L
- MIC P. aeruginosa PAO1, 5 mM MgCl2/CAMH [1]: 1024
- PAO1 + PMBN MIC ([1]; co-treatment of 8 μg/mL of PMBN, MH broth): 4 mg/L
- MIC versus PAO1 ([1]; text b125, Chart 6): 1024 μg/mLh
- MIC ([2]; Reference strain PA14 (Table 11), read-out: MIC): > 1020 mg/L
- MIC ([3]; MG1655, CLSI (Table 8), read-out: E. coli MG1655 MIC): 512 mg/L (≈ 991 µM)
- MIC ([3]; MG1655, Table 9, read-out: MIC E. coli MG1655): 512 mg/L (≈ 991 µM)
- MIC ([4]; ATCC29213, Table 9, read-out: MIC S. aureus ATCC 29213): 0.125 mg/L (≈ 0.242 µM)
- MIC fold change in FA-resistant strains [5]: 32-128 ×
- accumulation in PAO1 (in words) ([6]; FIG. 1a / FIG. 5): does not accumulate
- PA Accumulation (FA) [6]: 80 ± 7 nmol/1012 CFUs
- change of accumulation upon membrane permeabilization ([6]; treatment with PMBN, FIG. 1b): significant increase in accumulation
- EC Accumulation (FA) [7]: 52 ± 5 nmol/1012 CFUs
- NPN fluorescence (outer membrane permeability) [8]: did not lead to any change in fluorescence
- inner membrane depolarization (DiSC3 (5) fluorescence) [9]: did not impact membrane polarization
